Data taken from patent publication US20020120102A1, “Use of dendroaspin as a scaffold for non-dendroaspin domains” (priority 2000, published 2002).
Ends that are not written are not given here.

Tested on: washed platelets
Test: ADP-induced platelet aggregation (light transmission)
Format: cell-based
Settings: 10 μM ADP, 1.67 mg/ml fibrinogen, washed human platelets
Procedure: Measurement of platelet aggregation—Platelet aggregation was measured by the increase in light transmission as described previously (Lu et al. (1993), supra; Lu et al. (1994) Biochem. J. 304, 929-936). Briefly, platelet rich plasma (PRP) was prepared from citrated human blood, obtained from healthy individuals, by centrifugation at 200×g for 15 min. Washed platelets were prepared from PRP and resuspended in adhesion/aggregation buffer (145 mM NaCl, 5 mM KCl, 1 mM MgCl2, 2 mM CaCl2, 10 mM glucose, 3.5 mg/ml BSA and 10 mM HEPES, pH 7.35) and adjusted to a count of 3×10^8/ml. Platelet aggregation (320 μl incubations) was induced with 10 μM ADP in the presence of 1.67 mg/ml fibrinogen and measured using a Payton Dual-Aggregometer linked to a chart recorder.

With “KGD-dendroaspin: dendroaspin scaffold in which the native RGD motif is replaced by KGD; recombinant, expressed in E. coli (RICYNHLGTKPPTTETCQEDSCYKNIWTFDNIIRRGCGCFTPKGDMPGPYCCESDKCNL; ends and bridges not checked; cysteine pairing not given here)” the “inhibition of ADP-induced platelet aggregation” value was “potent inhibition”.
